# Patent US4354039A, “Chlorocitric acids” (Hoffmann-La Roche Inc., priority 1981, dated 1982)
# Where two headings read alike, the source gives them in different places.
# Key:
# [1] = Effect on stomach emptying, [14C] glucose load (Example 25); type: in vivo, Rats; conditions: 0.33 mmoles/kg oral, 60 min after [14C] glucose load
# Description: Rats were trained to consume a 3 hr 70% glucose meal from 8 a.m. to 11 a.m. daily. On the experimental day, compounds were administered orally by intubation 30 min before a [^14 C] glucose load was given also by intubation. […] Sixty minutes later the rats were killed by decapitation; blood and stomachs were collected on ice.
# Data are expressed as follows: dpm×10^3 per ml of serum and dpm×10^3 per stomach.
# [2] = system: isolated rat hepatocytes; assay: Fatty acid and cholesterol synthesis and CO2 production in isolated hepatocytes (Example 23); type: cell-based, Female Charles River rats; conditions: 2 mM, 60 min, 37° C.; for activity at 2000 µM: Rattus norvegicus, Hepatocyte, 1 h
# Description: Female Charles River rats were fasted 48 hr, then meal-fed a 1% corn oil, 70% glucose diet for 7 to 14 days from 8 to 11 a.m. The isolated rat hepatocytes were prepared by perfusing the liver in situ. The hepatocytes were incubated in an oscillating water bath at 37° C. for 60 min. […] All incubations were done in triplicate and all experiments were repeated at least twice. […] The contents of the center well were transferred to scintillation counting fluid and ^14 CO2 content was determined. […] The media was then acidified, extracted with hexane, and the extract counted (to determine the rate of lipogenesis). The conversion of ^3 H2 O and [^14 C]alanine into fatty acids or sterols was determined in a PDS/3, Mark II liquid scintillation counting system.
# [3] = Anorectic activities of stereoisomers, 3-day food consumption and body weight gain (Example 16); type: in vivo, Charles River female rats; conditions: 1.32 mmoles/kg oral, 3 days
# Description: Charles River female rats (Charles River Breeding Laboratories, Wilmington, Mass.), weighing 196 to 210 g, were individually housed in wire-bottomed cages in a temperature-regulated (22° C.) light-controlled room (12 hr light, 6 a.m. to 6 p.m. and 12 hr dark, 6 p.m. to 6 a.m.). Animals were fasted 48 hr, then meal-fed a 70% glucose diet from 8 to 11 a.m. Following 5 to 12 days alimentation on the meal-feeding regimen, rats were dosed with the appropriate compounds orally by intubation 1/2 hr before the 3 hr meal for 3 days. The total food consumption and body weight gained during the 3 day period were determined. The control group consisted of 16 rats, while the experimental group consists of 8 rats.
# [4] = Effect of stereoisomers on food consumption of meal-fed rats (Example 14); type: in vivo, Charles River female rats
# Description: Animals were fasted 48 hr, then meal-fed the 70% glucose diet described by A. C. […] Following 5 to 12 days alimentation on the meal-feeding regimen, rats were dosed with the appropriate compounds orally by intubation 1/2 hr before the 3 hr meal. Food cups were weighed immediately after the meal. The control group consisted of 5 to 10 rats, while the experimental group consisted of 4 to 6 rats.
# [5] = Food intake in dogs, pyramiding oral doses (Examples 26 and 27); type: in vivo, beagle dogs
# Description: Twelve beagle dogs of both sexes weighing 7.6-12.2 kg were used for this test. The test compounds were contained in gelatin capsules for oral administration to two dogs of each sex. The animals were weighed and food consumption calculated daily excluding weekends throughout the test period. Each animal received 800 grams of diet daily consisting of 400 grams of Wayne pellet dog food mixed with 400 ml distilled water. The animals received pyramiding oral doses of the test compound over the three week period. On Monday and Tuesday of the first week the animals were weighed and food consumption was recorded (control). […] Doses of 30, 100 and 300 mg/kg were administered on Monday, Wednesday and Friday respectively during the second week. A final dose of 1000 mg/kg was administered on Monday of the third week.
# Food intake was determined by the procedure at pyramiding doses described in EXAMPLE 26.
# [6] = test day 8, dose 100 mg/kg oral
# [7] = test day 10, dose 300 mg/kg oral
# [8] = test day 13, dose 1000 mg/kg oral
smiles,measurement,setting,value
O=C(O)C[C@](O)(C(=O)O)[C@H](Cl)C(=O)O [(+)-threo-Chlorocitric acid],"Serum, % of control",[1],60 % of control
same,"Stomach Contents, % of control",[1],220 % of control
same,"CO2 Production, [14C]alanine converted",[2]; 2000 µM,100 % of control
same,"Cholesterol Synthesis, [14C]alanine converted",[2]; 2000 µM,88 % of control
same,"Fatty Acid Synthesis, 3H2O converted",[2]; 2000 µM,94 % of control
same,"Fatty Acid Synthesis, [14C]alanine converted",[2]; 2000 µM,97 % of control
same,activity at 2000 µM,"[2]; read-out: CO2 Production, [14C]alanine converted",114%
same,activity at 2000 µM,"[2]; read-out: Cholesterol Synthesis, [14C]alanine converted",69%
same,activity at 2000 µM,"[2]; read-out: Fatty Acid Synthesis, 3H2O converted",93%
same,activity at 2000 µM,"[2]; read-out: Fatty Acid Synthesis, [14C]alanine converted",102%
same,"3-Day Body Weight Gain, % of initial body weight",[3],-1.7 % of initial body weight
same,"3-Day Food Consumption, % of control",[3],93 % of control
same,"Food Consumption, % of control",[4]; 0.66 mmoles/kg oral,83 % of control
same,"Food Consumption, % of control",[4]; 2.63 mmoles/kg oral,38 % of control
same,Food Consumption,"[5]; test day 1, dose 3 mg/kg oral",430 ± 109 g
same,"Food Consumption, % of control","[5]; test day 1, dose 3 mg/kg oral",70 % of control
same,Food Consumption,"[5]; test day 2, no dose",502 ± 109 g
same,"Food Consumption, % of control","[5]; test day 2, no dose",82 % of control
same,Food Consumption,"[5]; test day 3, dose 10 mg/kg oral",367 ± 114 g
same,"Food Consumption, % of control","[5]; test day 3, dose 10 mg/kg oral",60 % of control
same,Food Consumption,"[5]; test day 6, dose 30 mg/kg oral",629 ± 64 g
same,"Food Consumption, % of control","[5]; test day 6, dose 30 mg/kg oral",103 % of control
same,Food Consumption,"[5]; test day 7, no dose",397 ± 87 g
same,"Food Consumption, % of control","[5]; test day 7, no dose",65 % of control
same,Food Consumption,[5]; [6],477 ± 75 g
same,"Food Consumption, % of control",[5]; [6],78 % of control
same,Food Consumption,"[5]; test day 9, no dose",585 ± 69 g
same,"Food Consumption, % of control","[5]; test day 9, no dose",96 % of control
same,Food Consumption,[5]; [7],436 ± 60 g
same,"Food Consumption, % of control",[5]; [7],71 % of control
same,Food Consumption,[5]; [8],433 ± 125 g
same,"Food Consumption, % of control",[5]; [8],71 % of control
same,Food Consumption,"[5]; test day 14, no dose",518 ± 19 g
same,"Food Consumption, % of control","[5]; test day 14, no dose",85 % of control
same,Food Consumption,"[5]; test day 15, no dose",622 ± 69 g
same,"Food Consumption, % of control","[5]; test day 15, no dose",102 % of control
same,Food Consumption,"[5]; test day 16, no dose",564 ± 106 g
same,"Food Consumption, % of control","[5]; test day 16, no dose",92 % of control
same,Food Consumption,"[5]; test day 17, no dose",597 ± 36 g
same,"Food Consumption, % of control","[5]; test day 17, no dose",98 % of control
same,Food Consumption,"[5]; test day 21, no dose",578 ± 79 g
same,"Food Consumption, % of control","[5]; test day 21, no dose",95 % of control
same,Food Consumption,"[5]; test day 22, no dose",668 ± 57 g
same,"Food Consumption, % of control","[5]; test day 22, no dose",110 % of control
same,Food Consumption,"[5]; test day 23, no dose",516 ± 66 g
same,"Food Consumption, % of control","[5]; test day 23, no dose",85 % of control
same,Food Consumption,"[5]; test day 24, no dose",539 ± 39 g
same,"Food Consumption, % of control","[5]; test day 24, no dose",88 % of control
same,Food Consumption,"[5]; test day 27, no dose",479 ± 92 g
same,"Food Consumption, % of control","[5]; test day 27, no dose",79 % of control
same,Food Consumption,"[5]; test day 28, no dose",710 ± 91 g
same,"Food Consumption, % of control","[5]; test day 28, no dose",116 % of control
O=C(O)C[C@](O)(C(=O)O)[C@@H](Cl)C(=O)O [(-)-erythro-Chlorocitric acid],"Serum, % of control",[1],90 % of control
same,"Stomach Contents, % of control",[1],169 % of control
same,"3-Day Body Weight Gain, % of initial body weight",[3],-2.4 % of initial body weight
same,"3-Day Food Consumption, % of control",[3],86 % of control
same,"Food Consumption, % of control",[4]; 0.66 mmoles/kg oral,85 % of control
same,"Food Consumption, % of control",[4]; 2.63 mmoles/kg oral,53 % of control
O=C(O)C[C@@](O)(C(=O)O)[C@H](Cl)C(=O)O [(+)-erythro-Chlorocitric acid],"Serum, % of control",[1],88 % of control
same,"Stomach Contents, % of control",[1],207 % of control
same,"3-Day Body Weight Gain, % of initial body weight",[3],-0.7 % of initial body weight
same,"3-Day Food Consumption, % of control",[3],111 % of control
same,"Food Consumption, % of control",[4]; 0.66 mmoles/kg oral,99 % of control
same,"Food Consumption, % of control",[4]; 2.63 mmoles/kg oral,78 % of control
